Experiments:
[1] = tested on: mRNA transcript for the firefly (Photinus pyralis) luciferase gene; test: Mouse in vivo evaluation of efficacy (luciferase siRNA LNP, liver luminescence); details: RDV (LNP) with Luc siRNA, tail vein, 0.1 to 0.5 mg/kg siRNA, imaged 48 hours post dose; compared with RDV containing Compound A
Method: LNPs utilizing Compound 4, in the nominal compositions described immediately above, were evaluated for in vivo efficacy. The siRNA targets the mRNA transcript for the firefly (Photinus pyralis) luciferase gene (Accession #M15077). […] The in vivo luciferase model employs a transgenic mouse in which the firefly luciferase coding sequence is present in all cells. ROSA26-LoxP-Stop-LoxP-Luc (LSL-Luc) transgenic mice licensed from the Dana Farber Cancer Institute are induced to express the Luciferase gene by first removing the LSL sequence with a recombinant Ad-Cre virus (Vector Biolabs). Due to the organo-tropic nature of the virus, expression is limited to the liver when delivered via tail vein injection. Luciferase expression levels in liver are quantitated by measuring light output, using an IVIS imager (Xenogen) following administration of the luciferin substrate (Caliper Life Sciences). Pre-dose luminescence levels are measured prior to administration of the RDVs. Luciferin in PBS (15 mg/mL) is intraperitoneally (IP) injected in a volume of 150 μL. After a four minute incubation period mice are anesthetized with isoflurane and placed in the IVIS imager. The RDVs (containing siRNA) in PBS vehicle were tail vein injected n a volume of 0.2 mL. […] In vivo efficacy results are expressed as % inhibition of luminescence relative to pre-dose luminescence levels. […]

[2] = tested on: mRNA transcript for the ApoB gene; test: Rat in vivo evaluation of efficacy (ApoB siRNA LNP, liver ApoB mRNA by RT-PCR); details: RDV (LNP) with ApoB siRNA, tail vein, Sprague-Dawley female rats, 24 hours after dosing; compared with RDV containing DLinKC2DMA (Compound 12)
Method: (§1) Six hours post dose, food is removed from the cages. Animal necropsy is performed 24 hours after LNP dosing. Rats are anesthetized under isoflurane for 5 minutes, then maintained under anesthesia by placing them in nose cones continuing the delivery of isoflurane until ex-sanguination is completed. Blood is collected from the vena cava using a 23 gauge butterfly venipuncture set and aliquoted to serum separator vacutainers for serum chemistry analysis. Punches of the excised caudate liver lobe are taken and placed in RNALater (Ambion) for mRNA analysis. Preserved liver tissue was homogenized and total RNA isolated using a Qiagen bead mill and the Qiagen miRNA-Easy RNA isolation kit following the manufacturer's instructions. Liver ApoB mRNA levels were determined by quantitative RT-PCR. Message was amplified from purified RNA utilizing a rat ApoB commercial probe set (Applied Biosystems Cat #RN01499054_m1). The PCR reaction was performed on an ABI 7500 instrument with a 96-well Fast Block. The ApoB mRNA level is normalized to the housekeeping PPIB (NM 011149) mRNA. PPIB mRNA levels were determined by RT-PCR using a commercial probe set (Applied Biosytems Cat. No. Mm00478295_m1). Results are expressed as a ratio of ApoB mRNA/PPIB mRNA. All mRNA data is expressed relative to the PBS control dose. […]

[3] = Rat in vivo evaluation of toxicity (serum ALT and AST); details: RDV (LNP) with ApoB siRNA, tail vein, Sprague-Dawley female rats, 24 hours after dosing; compared with RDV containing DLinKC2DMA (Compound 12)
Method: as §1

[4] = Determination of cationic lipid levels in rat liver (LC/MS-MS); assay type: in vivo; details: rats dosed with RDV, 0.5 mg/kg; compared with RDV containing DLinKC2DMA (Compound 12) or MC3 (Compound 13), also 0.5 mg/kg
Method: Liver tissue was weighed into 20-ml vials and homogenized in 9 v/w of water using a GenoGrinder 2000 (OPS Diagnostics, 1600 strokes/min, 5 min). A 50 μL aliquot of each tissue homogenate was mixed with 300 μL of extraction/protein precipitating solvent (50/50 acetonitrile/methanol containing 500 nM internal standard) and the plate was centrifuged to sediment precipitated protein. A volume of 200 μL of each supernatant was then transferred to separate wells of a 96-well plate and 10 μl samples were directly analyzed by LC/MS-MS.
Standards were prepared by spiking known amounts of a methanol stock solution of compound into untreated rat liver homogenate (9 vol water/weight liver). Aliquots (50 μL) each standard/liver homogenate was mixed with 300 μL of extraction/protein precipitating solvent (50/50 acetonitrile/methanol containing 500 nM internal standard) and the plate was centrifuged to sediment precipitated protein. A volume of 200 μL of each supernatant was transferred to separate wells of a 96-well plate and 10 μl of each standard was directly analyzed by LC/MS-MS.
Absolute quantification versus standards prepared and extracted from liver homogenate was performed using an Aria LX-2 HPLC system (Thermo Scientific) coupled to an API 4000 triple quadrupole mass spectrometer (Applied Biosystems). […]

Compound: CCCCC/C=C\C/C=C\CCCCCCCCO[C@@H]1CN(C)C[C@H]1OCCCCCCCC (relative stereo) [Compound 4, trans-1-Methyl-3-[((9Z,12Z)-octadeca-9,12-dienyl)oxy]-4-octyloxy-pyrrolidine]
- in vivo efficacy (% inhibition of luminescence relative to pre-dose luminescence levels) [1]: Greater efficacy
- in vivo efficacy (liver ApoB mRNA/PPIB mRNA relative to PBS control) [2]: Modestly decreased efficacy
- tolerability (increases in serum alanine amino transferase and aspartate amino transferase) [3]: significantly improved tolerability
- cationic lipid levels in rat liver [4]: much lower

Reference: patent publication US10337014B2, “Low molecular weight cyclic amine containing cationic lipids for oligonucleotide delivery” (SIRNA THERAPEUTICS, INC., priority 2010, dated 2019)
